Experimental data reported in article PMC4488747, “Inhibition of P-glycoprotein Gene Expression and Function Enhances Triptolide-induced Hepatotoxicity in Mice” (Scientific Reports, 2015).
d = 2'-deoxy (DNA)

Assays:
[1] = molecular target: T1, P-gp (Mus musculus, UniProt P21447); test: P-gp function in knockdown mice assessed by digoxin plasma pharmacokinetics; format: in vivo; settings: iv, 1 mg/kg, digoxin 1 mg/kg injection
T1 construct: from tissue; host or cells: whole living mice (in vivo, intravenous digoxin 1 mg/kg after NC-siRNA or mdr1a-1 siRNA)
T1 sequence (P21447 whole entry): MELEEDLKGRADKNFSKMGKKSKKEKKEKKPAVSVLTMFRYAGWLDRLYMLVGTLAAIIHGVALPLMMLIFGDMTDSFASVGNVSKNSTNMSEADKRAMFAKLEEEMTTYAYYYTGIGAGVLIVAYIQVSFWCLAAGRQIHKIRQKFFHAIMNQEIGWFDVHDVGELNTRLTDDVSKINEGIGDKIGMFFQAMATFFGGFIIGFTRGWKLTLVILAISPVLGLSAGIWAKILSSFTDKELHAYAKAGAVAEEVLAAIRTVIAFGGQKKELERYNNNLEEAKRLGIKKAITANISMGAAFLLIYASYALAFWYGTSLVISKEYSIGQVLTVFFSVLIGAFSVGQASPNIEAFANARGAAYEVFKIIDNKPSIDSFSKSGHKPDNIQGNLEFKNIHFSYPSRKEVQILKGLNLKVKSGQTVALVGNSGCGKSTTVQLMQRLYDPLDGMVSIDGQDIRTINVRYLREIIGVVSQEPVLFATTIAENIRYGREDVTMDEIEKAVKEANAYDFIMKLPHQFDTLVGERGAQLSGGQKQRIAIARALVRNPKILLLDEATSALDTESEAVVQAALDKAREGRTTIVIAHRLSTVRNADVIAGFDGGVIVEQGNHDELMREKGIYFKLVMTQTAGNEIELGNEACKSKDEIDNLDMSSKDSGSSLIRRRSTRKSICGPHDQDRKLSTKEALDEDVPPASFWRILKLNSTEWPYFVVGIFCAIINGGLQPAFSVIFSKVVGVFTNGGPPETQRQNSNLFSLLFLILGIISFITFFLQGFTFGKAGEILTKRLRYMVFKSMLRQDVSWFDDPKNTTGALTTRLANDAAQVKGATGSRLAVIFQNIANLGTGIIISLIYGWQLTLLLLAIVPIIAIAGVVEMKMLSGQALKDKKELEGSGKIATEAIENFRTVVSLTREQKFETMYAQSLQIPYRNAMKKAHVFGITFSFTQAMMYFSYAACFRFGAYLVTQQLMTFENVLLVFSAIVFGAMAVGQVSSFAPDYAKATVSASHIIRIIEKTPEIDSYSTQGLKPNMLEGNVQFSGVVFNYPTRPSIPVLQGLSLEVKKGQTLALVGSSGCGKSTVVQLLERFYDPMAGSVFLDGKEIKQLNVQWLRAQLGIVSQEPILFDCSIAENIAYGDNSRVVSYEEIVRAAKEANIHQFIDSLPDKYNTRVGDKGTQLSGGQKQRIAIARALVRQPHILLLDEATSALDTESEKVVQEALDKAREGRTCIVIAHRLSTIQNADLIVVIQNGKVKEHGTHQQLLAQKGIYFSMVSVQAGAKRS
Experimental: For validation of silence efficiency in vivo, mdr1a-1 siRNA was injected via the tail vein of mice after diluted to 5, 10 and 15 nmol with saline in 200 μl. After 48 h, the mice were euthanized and the liver was collected for measurement of the P-gp protein expression using western blot. The P-gp function in gene knockdown mice was assessed using digoxin, a known P-gp substrate. NC-siRNA or mdr1a-1 siRNA was intravenously injected 2 days prior to the injection of digoxin (1mg/kg). Blood samples were collected at 5, 15, 30, min and 1, 2, 4, 6, 8, 12 hours post digoxin dose (n = 5/time-point for each group). The digoxin concentrations in samples were quantitatively analyzed by a published LC-MS/MS method.
Toxicokinetic parameters, including area under the plasma concentration-time curve (AUC), volume of distribution (Vd), clearance (CL), mean residence time (MRT) and terminal elimination half-life (t1/2), were calculated by non-compartmental analysis using WinNonlin 5.2 software (Pharsight Corporation, CA, USA). All the data were expressed as mean ± SD. Differences between groups were compared by Student’s t-test for analysis of unpaired data or one-way ANOVA. Statistical significance was accepted at P < 0.05.

[2] = test system: BALB/C mice; test: Serum ALT and AST (TP-induced hepatotoxicity) in mice; format: in vivo; settings: TP 1 mg/kg iv with P-gp modulator, 24 h after TP
Experimental: For TP plasma kinetic study and toxicological evaluation, mice were divided into four groups (n = 5 each) to collect blood and tissue samples: (1) normal + saline group; (2) 1.0 mg/kg TP + 15 nmol NC-siRNA group; (3) 1.0 mg/kg TP + 15 nmol mdr1a-siRNA group; (4) 1.0 mg/kg TP + 10 mg/kg tariquidar group. In order to avoid the complication caused by drug absorption or possible intestinal first-pass effect, TP and the inhibitor were intravenously administrated to mice. The siRNA group was intravenously injected with NC-siRNA or mdr1a-siRNA 2 days before TP dose. For TP + tariquidar group, the mice were received an intravenous tariquidar dose 20 min prior to the TP injection. Blood samples were collected at 2, 5, 10, 15, 30, 60 and 120 min after TP dosing. To assess the liver exposure of TP, liver tissue samples were collected from another set of mice at 5, 30, 60 and 120 min after dosing. Three TP groups were design for this experiment, including TP + NC-siRNA group, TP + mdr1a-siRNA group and TP + tariquidar group. The liver tissue samples were weighed and then homogenized in 10 volume (w:v) of ice-cold saline. The concentrations of TP in plasma and liver tissue were measured by a validated LC-MS/MS method. Prior to the above animal study, a preliminary experiment was performed to assess the possible differences in liver P-gp protein expression (Figure S1) and TP plasma kinetics between NC-siRNA treated mice and normal mice (with saline) (Figure S2 and supplemental Table 1). […] Therefore, NC-siRNA group was used as the control in the following animal study.
(§1) At 24 h of TP treatment, blood and liver tissue samples were collected from the mice in plasma kinetic study. Serum ALT and AST levels were determined with a CL8000 automated biochemical analyzer (Shimadzu, Japan) after serum was separated by centrifugation at 900 g for 10 min. Liver tissue samples were divided into two parts, the first half was kept at −80 °C until MDA and SOD measurements using MDA and SOD assay kits (Nanjing Jiancheng Bioengineering Institute, Nanjing, China) according to the manufacturer’s instructions. The other half was fixed with 4% paraformaldehyde solution and then dehydrated, embedded in paraffin and sectioned at a thickness of 5 μm. Four paraffin sections from each mouse were dewaxed, rehydrated and stained with hematoxylin-eosin (HE) for overall morphological evaluation. The total protein concentration was quantified by the BCA assay. Bcl-2 and Bax proteins were measured by western blot.

[3] = test system: Bcl-2/Bax; test: Bcl-2 and Bax expression in mouse liver (western blot); format: in vivo; settings: mice, TP 1 mg/kg iv, 24 h; tariquidar and mdr1a-siRNA = given before TP
Experimental: For protein extraction, the cells or mice liver tissues were homogenized in RIPA buffer and then centrifuged at 14,000 g at 4 °C for 30 min. The supernatant was collected and the protein concentration was measured using BCA assay. The sample (50 μg protein/sample) was then loaded on 12% polyacrylamide gels and transferred to polyvinylidene difluoride membranes (Millipore, USA). After blocked by 3% bovine serum albumin, the membranes were incubated with primary antibodies and HRP-conjugated secondary antibody, and then detected using the enhanced chemiluminescence plus detection system (Molecular Device, Lmax, USA). The density of each band was quantified by using image analysis software (Science Lab 2005 Image Guage; Tokyo, Japan).
as §1, with “The other half was fixed with 4% paraformaldehyde solution and then dehydrated, embedded in paraffin and sectioned at a thickness of 5 μm. Four paraffin sections from each mouse were dewaxed, rehydrated and stained with hematoxylin-eosin (HE) for overall morphological evaluation.” left out

[4] = test system: BALB/C mice; test: Liver histopathology (HE staining) in mice; format: in vivo; settings: TP 1 mg/kg iv, 24 h, TP = NC-siRNA group, tariquidar and mdr1a-1 siRNA = given before TP
Experimental: For TP plasma kinetic study and toxicological evaluation, mice were divided into four groups (n = 5 each) to collect blood and tissue samples: (1) normal + saline group; (2) 1.0 mg/kg TP + 15 nmol NC-siRNA group; (3) 1.0 mg/kg TP + 15 nmol mdr1a-siRNA group; (4) 1.0 mg/kg TP + 10 mg/kg tariquidar group. In order to avoid the complication caused by drug absorption or possible intestinal first-pass effect, TP and the inhibitor were intravenously administrated to mice. The siRNA group was intravenously injected with NC-siRNA or mdr1a-siRNA 2 days before TP dose. For TP + tariquidar group, the mice were received an intravenous tariquidar dose 20 min prior to the TP injection. Blood samples were collected at 2, 5, 10, 15, 30, 60 and 120 min after TP dosing. To assess the liver exposure of TP, liver tissue samples were collected from another set of mice at 5, 30, 60 and 120 min after dosing. […] The concentrations of TP in plasma and liver tissue were measured by a validated LC-MS/MS method. […]
At 24 h of TP treatment, blood and liver tissue samples were collected from the mice in plasma kinetic study. Serum ALT and AST levels were determined with a CL8000 automated biochemical analyzer (Shimadzu, Japan) after serum was separated by centrifugation at 900 g for 10 min. […] The total protein concentration was quantified by the BCA assay. Bcl-2 and Bax proteins were measured by western blot.

[5] = Preliminary experiment: effect of NC-siRNA on pharmacokinetics of TP in mice; format: in vivo; settings: TP 1.0 mg/kg
Experimental: Effect of NC-siRNA on pharmacokinetic of TP
Mice were divided into two groups to collect blood samples (n=5 each): (1) 1.0 mg/kg TP + saline group; (2) 1.0 mg/kg TP + 15 nmol NC-siRNA group. The siRNA group was intravenously injected with NC-siRNA 2 days before TP dose. Blood samples were collected at 2, 5, 10, 15, 30, 60 and 120 min after TP dosing. The concentrations of TP in plasma and liver were measured by a validated LC-MS/MS method.

[6] = test system: mdr1a mRNA; test: RNAi knockdown of mdr1a mRNA in CT26.WT cells (real-time PCR); format: cell-based, mouse; settings: siRNA 80 pM with Lipofectamin 2000, 48 h after transfection
Experimental: CT26.WT cells, a mouse colon carcinoma cell line, were obtained from ATCC and maintained in RPMI-1640 supplemented with 10% fetal bovine serum. Cells were seeded to 6-well plates at a density of 5 × 10^5 cells/well and cultured for 24 h. Transfection was performed in Opti-MEM (Invitrogen, Carlsbad, CA, USA) with synthetic siRNA (80 pM) by using Lipofectamin 2000 (Invitrogen, Carlsbad, CA, USA) for 6 h and the medium was replaced with fresh RPMI-1640. This condition was optimized in our preliminary experiments based on the transfection efficiency and the cellular viability. Following incubation for 48 h, the cells were washed three times with phosphate buffered saline buffer (PBS) and total RNA and protein were collected.
Total RNA from CT26. WT cells was extracted with Trizol (Invitrogen, Carlsbad, CA, USA) according to the manufacturer’s instructions. RNA samples (1 μg) were reverse transcribed by adding oligo(dT)18 (MBI Fermentas, USA), dNTP, RNase inhibitor, and M-MLV reverse transcriptase (Takara, Japan), holding at room temperature for 10 min and incubating at 42 °C for 60 min. The samples were heated at 72 °C to inactivate enzymes for 10 min and stored at −20 °C. Real-time PCR was performed using sense and antisense primers. […] The relative amount of target mRNA was determined using the comparative threshold (Ct) method by normalizing target mRNA Ct values to those for β-actin (ΔCt). […]

C[C@H]1O[C@@H](O[C@H]2[C@@H](O)C[C@H](O[C@H]3[C@@H](O)C[C@H](O[C@H]4CC[C@@]5(C)[C@H](CC[C@@H]6[C@@H]5C[C@@H](O)[C@]5(C)[C@@H](C7=CC(=O)OC7)CC[C@]65O)C4)O[C@@H]3C)O[C@@H]2C)C[C@H](O)[C@@H]1O [Digoxin, digoxin]
AUC(0-t) ([1]; NC-siRNA iv 2 days prior): 3360 ± 739 ng·h/mL | Cmax ([1]; NC-siRNA iv 2 days prior): 1740 ± 574 ng/mL | MRT ([1]; NC-siRNA iv 2 days prior): 3.7 ± 0.3 h | Vd ([1]; NC-siRNA iv 2 days prior): 2 ± 0.5 L/kg | clearance ([1]; NC-siRNA iv 2 days prior): 4.21 mL/min/kg | half-life ([1]; NC-siRNA iv 2 days prior): 5.7 ± 1.3 h | AUC(0-t) ([1]; mdr1a-1 siRNA iv 2 days prior): 8770 ± 1450 ng·h/mL | Cmax ([1]; mdr1a-1 siRNA iv 2 days prior): 2260 ± 267 ng/mL | MRT ([1]; mdr1a-1 siRNA iv 2 days prior): 3.8 ± 0.4 h | Vd ([1]; mdr1a-1 siRNA iv 2 days prior): 0.6 ± 0.08 L/kg | clearance ([1]; mdr1a-1 siRNA iv 2 days prior): 1.66 mL/min/kg | half-life ([1]; mdr1a-1 siRNA iv 2 days prior): 4 ± 1.4 h

COc1cc2c(cc1OC)CN(CCc1ccc(NC(=O)c3cc(OC)c(OC)cc3NC(=O)c3cnc4ccccc4c3)cc1)CC2 [tariquidar, Tariquidar, reference compound]
Serum ALT level, folds of the TP+NC-siRNA group [2]: 1.2 folds | Serum AST level, folds of the TP+NC-siRNA group [2]: 1.9 folds | Bcl-2/Bax ratio in liver [3]: markedly reduced the ratio | Histopathological changes in liver (HE) [4]: more severe

NC-siRNA: negative control siRNA, sense 5′-UUCUCCGAACGUGUCACGUTT-3′ (antisense ACGUGACACGUUCGGAGAATT; sugars by position and backbone not given here; 3' and 5' ends modified with methylation and cholesterol) [reference compound]
Differences in TP plasma concentrations and kinetic parameters, NC-siRNA treated vs normal (saline) mice [5]: No significant differences

mdr1a-2: murine mdr1a siRNA, sense 5′-r(AGA AGGAAC UAG AAG GUU CUG) d(TT)-3′ (sense AGAAGGAACUAGAAGGUUCUG; antisense CAGAACCUUCUAGUUCCUUCU; RNA, 3' dTdT, backbone and methylation of C not given here; 3' and 5' ends modified with methylation and cholesterol)
Silencing efficiency on mdr1a mRNA [6]: 51%

mdr1a-3: murine mdr1a siRNA, sense 5′-GGCUGGACAAGCUGUGCAUGG-3′ (antisense AUGCACAGCUUGUCCAGCCAA; sugars by position and backbone not given here; 3' and 5' ends modified with methylation and cholesterol)
Silencing efficiency on mdr1a mRNA [6]: 46%
